Laboratory results published in patent publication US20260200939A1, “MOLECULAR GLUE DEGRADER COMPOUNDS AND USES THEREOF” (Novartis AG, priority 2022, published 2026).

Experiments:
[1] = biological target: T1, BRD4 short (Homo sapiens, UniProt O60885); experiment: BRD4 (short) degradation assay, Western blotting; type: cell-based
T1 construct: endogenous in cells; host or cells: HEK293T
Method in brief: (§1)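 Cell lines were grown at 37° C with 5% CO2 (HEK293T and C33A in DMEM, A549 in F-12K, 22RV1, LNCaP and Mino in RPMI-1640, K562 and MV-4-11 in IMDM, all with 10% FBS). Lysates were BCA-normalized, then SDS/PAGE Western blots were probed with target-specific antibodies and read by IR680/IR800 fluorescent secondaries on Li-Cor.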

[2] = biological target: T2, BRD4 long (Homo sapiens, UniProt O60885); experiment: BRD4 (long) degradation assay, Western blotting; type: cell-based
T2 construct: endogenous in cells; host or cells: HEK293T
Method in brief: as §1

[3] = second value of cell, range with lower bound in nM and upper bound in μM
[4] = first value of cell, range with lower bound in nM and upper bound in μM
[5] = second value of cell (long/short)
[6] = first value of cell (long/short)

Row | SMILES | DC50 [1, 3] | DC50 [2, 4] | DC50 [1, 5] | DC50 [2, 6]
1 | Cc1sc2c(c1C)C(c1ccc(Cl)cc1)=N[C@@H](CC(=O)N[C@H]1C[C@@H](NC(=O)/C=C/C(=O)c3ccc(=O)n(C)c3)C1)c1nnc(C)n1-2 [Compound 243, (E)-N-((1R,3s)-3-(2-((S)-4-(4-chlorophenyl)-2,3,9-trimethyl-6H-thieno[3,2-f][1,2,4]triazolo[4,3-a][1,4]diazepin-6-yl)acetamido)cyclobutyl)-4-(1-methyl-6-oxo-1,6-dihydropyridin-3-yl)-4-oxobut-2-enamide] | 100 to 1000 nM | 100 to 1000 nM | – | –
2 | Cc1sc2c(c1C)C(c1ccc(Cl)cc1)=N[C@@H](CC(=O)N[C@H]1C[C@H](NC(=O)/C=C/C(=O)c3ccc(=O)n(C)c3)C1)c1nnc(C)n1-2 [Compound 244, (E)-N-((1S,3r)-3-(2-((S)-4-(4-chlorophenyl)-2,3,9-trimethyl-6H-thieno[3,2-f][1,2,4]triazolo[4,3-a][1,4]diazepin-6-yl)acetamido)cyclobutyl)-4-(1-methyl-6-oxo-1,6-dihydropyridin-3-yl)-4-oxobut-2-enamide] | – | 100 to 1000 nM | 1000 nM | –
3 | Cc1sc2c(c1C)C(c1ccc(Cl)cc1)=N[C@@H](CC(=O)N1CCN(C(=O)/C=C/C(=O)N3CCN(C)CC3)CC1)c1nnc(C)n1-2 [Compound 245, (S,E)-1-(4-(2-(4-(4-chlorophenyl)-2,3,9-trimethyl-6H-thieno[3,2-f][1,2,4]triazolo[4,3-a][1,4]diazepin-6-yl)acetyl)piperazin-1-yl)-4-(4-methylpiperazin-1-yl)but-2-ene-1,4-dione] | – | – | > 5000 nM | > 5000 nM
4 | COc1ccc(NC(=O)/C=C/C(=O)N2CCN(C(=O)C[C@@H]3N=C(c4ccc(Cl)cc4)c4c(sc(C)c4C)-n4c(C)nnc43)CC2)cc1 [Compound 246, (S,E)-4-(4-(2-(4-(4-chlorophenyl)-2,3,9-trimethyl-6H-thieno[3,2-f][1,2,4]triazolo[4,3-a][1,4]diazepin-6-yl)acetyl)piperazin-1-yl)-N-(4-methoxyphenyl)-4-oxobut-2-enamide] | 100 to 1000 nM | – | – | > 5000 nM
5 | Cc1sc2c(c1C)C(c1ccc(Cl)cc1)=N[C@@H](CC(=O)N1CCN(C(=O)/C=C/C(=O)Nc3cccn(C)c3=O)CC1)c1nnc(C)n1-2 [Compound 247, (S,E)-4-(4-(2-(4-(4-chlorophenyl)-2,3,9-trimethyl-6H-thieno[3,2-f][1,2,4]triazolo[4,3-a][1,4]diazepin-6-yl)acetyl)piperazin-1-yl)-N-(1-methyl-2-oxo-1,2-dihydropyridin-3-yl)-4-oxobut-2-enamide] | 100 to 1000 nM | 100 to 1000 nM | – | –
6 | Cc1sc2c(c1C)C(c1ccc(Cl)cc1)=N[C@@H](CC(=O)N1CCN(C(=O)/C=C/C(=O)N3CCOCC3)CC1)c1nnc(C)n1-2 [Compound 248, (S,E)-1-(4-(2-(4-(4-chlorophenyl)-2,3,9-trimethyl-6H-thieno[3,2-f][1,2,4]triazolo[4,3-a][1,4]diazepin-6-yl)acetyl)piperazin-1-yl)-4-morpholinobut-2-ene-1,4-dione] | – | – | > 5000 nM | > 5000 nM
7 | Cc1sc2c(c1C)C(c1ccc(Cl)cc1)=N[C@@H](CC(=O)N[C@H]1C[C@@H](NC(=O)/C=C/C(=O)N3CCOCC3)C1)c1nnc(C)n1-2 [Compound 249, (E)-N-((1R,3s)-3-(2-((S)-4-(4-chlorophenyl)-2,3,9-trimethyl-6H-thieno[3,2-f][1,2,4]triazolo[4,3-a][1,4]diazepin-6-yl)acetamido)cyclobutyl)-4-morpholino-4-oxobut-2-enamide] | – | – | > 5000 nM | > 5000 nM
8 | Cc1sc2c(c1C)C(c1ccc(Cl)cc1)=N[C@@H](CC(=O)N[C@H]1C[C@H](NC(=O)/C=C/C(=O)N3CCOCC3)C1)c1nnc(C)n1-2 [Compound 250, (E)-N-((1S,3r)-3-(2-((S)-4-(4-chlorophenyl)-2,3,9-trimethyl-6H-thieno[3,2-f][1,2,4]triazolo[4,3-a][1,4]diazepin-6-yl)acetamido)cyclobutyl)-4-morpholino-4-oxobut-2-enamide] | – | – | > 5000 nM | > 5000 nM
9 | COc1ccc2c(c1)CCCN2C(=O)/C=C/C(=O)N1CCN(C(=O)C[C@@H]2N=C(c3ccc(Cl)cc3)c3c(sc(C)c3C)-n3c(C)nnc32)CC1 [Compound 251, (S,E)-1-(4-(2-(4-(4-chlorophenyl)-2,3,9-trimethyl-6H-thieno[3,2-f][1,2,4]triazolo[4,3-a][1,4]diazepin-6-yl)acetyl)piperazin-1-yl)-4-(6-methoxy-3,4-dihydroquinolin-1(2H)-yl)but-2-ene-1,4-dione] | – | – | 10 to 100 nM | > 5000 nM
10 | COc1ccc2c(c1)CCN(C(=O)/C=C/C(=O)N1CCN(C(=O)C[C@@H]3N=C(c4ccc(Cl)cc4)c4c(sc(C)c4C)-n4c(C)nnc43)CC1)C2 [Compound 252, (S,E)-1-(4-(2-(4-(4-chlorophenyl)-2,3,9-trimethyl-6H-thieno[3,2-f][1,2,4]triazolo[4,3-a][1,4]diazepin-6-yl)acetyl)piperazin-1-yl)-4-(6-methoxy-3,4-dihydroisoquinolin-2(1H)-y1)but-2-ene-1,4-dione] | – | – | > 5000 nM | > 5000 nM
11 | Cc1sc2c(c1C)C(c1ccc(Cl)cc1)=N[C@@H](CC(=O)NC1CC(NC(=O)/C=C/C(=O)N3CC4(COC4)C3)C1)c1nnc(C)n1-2 (stereo partly drawn) [Compound 253, (S,E)-N-(3-(2-(4-(4-chlorophenyl)-2,3,9-trimethyl-6H-thieno[3,2-f][1,2,4]triazolo[4,3-a][1,4]diazepin-6-yl)acetamido)cyclobutyl)-4-oxo-4-(2-oxa-6-azaspiro[3.3]heptan-6-yl)but-2-enamide] | – | – | > 5000 nM | > 5000 nM
12 | Cc1sc2c(c1C)C(c1ccc(Cl)cc1)=N[C@@H](CC(=O)N[C@H]1C[C@@H](NC(=O)/C=C/C(=O)C(C)(C)C)C1)c1nnc(C)n1-2 [Compound 277, (E)-N-((1R,3s)-3-(2-((S)-4-(4-chlorophenyl)-2,3,9-trimethyl-6H-thieno[3,2-f][1,2,4]triazolo[4,3-a][1,4]diazepin-6-yl)acetamido)cyclobutyl)-5,5-dimethyl-4-oxohex-2-enamide] | – | – | 10 to 100 nM | 10 to 100 nM
13 | Cc1sc2c(c1C)C(c1ccc(Cl)cc1)=N[C@@H](CC(=O)N[C@H]1C[C@H](NC(=O)/C=C/C(=O)C(C)(C)C)C1)c1nnc(C)n1-2 [Compound 278, (E)-N-((1S,3r)-3-(2-((S)-4-(4-chlorophenyl)-2,3,9-trimethyl-6H-thieno[3,2-f][1,2,4]triazolo[4,3-a][1,4]diazepin-6-yl)acetamido)cyclobutyl)-5,5-dimethyl-4-oxohex-2-enamide] | – | – | 10 to 100 nM | 10 to 100 nM
14 | COc1ccc(/C=C/S(=O)(=O)N2CCN(C(=O)C[C@@H]3N=C(c4ccc(Cl)cc4)c4c(sc(C)c4C)-n4c(C)nnc43)CC2)cc1 [Compound 279, (S,E)-2-(4-(4-chlorophenyl)-2,3,9-trimethyl-6H-thieno[3,2-f][1,2,4]triazolo[4,3-a][1,4]diazepin-6-yl)-1-(4-((4-methoxystyryl)sulfonyl)piperazin-1-yl)ethan-1-one] | – | – | > 5000 nM | > 5000 nM
15 | Cc1sc2c(c1C)C(c1ccc(Cl)cc1)=N[C@@H](CC(=O)N[C@H]1C[C@H](NC(=O)/C=C/C(=O)c3ccc(Cl)cc3Cl)C1)c1nnc(C)n1-2 [Compound 281, (E)-N-((1S,3r)-3-(2-((S)-4-(4-chlorophenyl)-2,3,9-trimethyl-6H-thieno[3,2-f][1,2,4]triazolo[4,3-a][1,4]diazepin-6-yl)acetamido)cyclobutyl)-4-(2,4-dichlorophenyl)-4-oxobut-2-enamide] | 100 to 1000 nM | 100 to 1000 nM | – | –
16 | Cc1sc2c(c1C)C(c1ccc(Cl)cc1)=N[C@@H](CC(=O)N[C@H]1C[C@H](NC(=O)/C=C/C(=O)c3cccc(Cl)c3Cl)C1)c1nnc(C)n1-2 [Compound 287, (E)-N-((1S,3r)-3-(2-((S)-4-(4-chlorophenyl)-2,3,9-trimethyl-6H-thieno[3,2-f][1,2,4]triazolo[4,3-a][1,4]diazepin-6-yl)acetamido)cyclobutyl)-4-(2,3-dichlorophenyl)-4-oxobut-2-enamide] | – | – | 1000 to 5000 nM | 1000 to 5000 nM
17 | Cc1sc2c(c1C)C(c1ccc(Cl)cc1)=N[C@@H](CC(=O)N[C@H]1C[C@H](NC(=O)/C=C/C(=O)c3cc(Cl)ccc3Cl)C1)c1nnc(C)n1-2 [Compound 288, (E)-N-((1S,3r)-3-(2-((S)-4-(4-chlorophenyl)-2,3,9-trimethyl-6H-thieno[3,2-f][1,2,4]triazolo[4,3-a][1,4]diazepin-6-yl)acetamido)cyclobutyl)-4-(2,5-dichlorophenyl)-4-oxobut-2-enamide] | 100 to 1000 nM | 100 to 1000 nM | – | –
